Experimental data as given in patent publication US20260217651A1 (priority 2022, published 2026).
Like-named read-outs stand apart in the source and are kept apart here.

Columns and labels:
SD rats [1] = assay: animal or person; format: in vivo; settings: Rattus norvegicus, iv, read-out: Minimal effective analgesic dose(mg/kg)
SD rats [2] = assay: animal or person; format: in vivo, rat; settings: iv; for minimal effective dose: Rattus norvegicus, read-out: Minimal effective anesthetic dose(mg/kg); for Onset time / Righting Reflex Duration / Sedation Duration: rat, in vivo

| Structure (SMILES) | minimal effective dose (SD rats [1]) [mg/kg] | minimal effective dose (SD rats [2]) [mg/kg] | Onset time (SD rats [2]) [min] | Righting Reflex Duration (SD rats [2]) [min] | Sedation Duration (SD rats [2]) [min] |
| --- | --- | --- | --- | --- | --- |
| CCC(=O)N(c1ccccc1)C1CCN(c2cc(C(C)C)c(O)c(C(C)C)c2)CC1 [Cpd-1] | < 5 | < 5 | 0.38 to 0.62 | 6.27 to 10.78 | 19.02 to 22.97 |
| CCCC(=O)N(c1ccccc1)C1CCN(c2cc(C(C)C)c(O)c(C(C)C)c2)CC1 [Cpd-13] | 5 to 10 | 5 to 10 | 0.35 | 20.27 | 41.57 |
| CCOC(=O)C1(c2ccccc2)CCN(c2cc(C(C)C)c(O)c(C(C)C)c2)CC1 [Cpd-21] | < 5 | < 5 | 1.35 | 1.32 | 20.10 |
| CCOC(=O)C1(c2cccs2)CCN(c2cc(C(C)C)c(O)c(C(C)C)c2)CC1 [Cpd-24] | 5 to 10 | 5 to 10 | 0.85 | 11.60 | 21.70 |
| CCOC(=O)C1(c2ccccc2)CCN(c2cc(C(C)C)c(O)c([C@H](C)C3CC3)c2)CC1 [Cpd-25] | 5 to 10 | 5 to 10 | 1.28 to 2.95 | 3.45 to 6.43 | 17.48 to 23.03 |
| CC(C)OC(=O)C1(c2ccccc2)CCN(c2cc(C(C)C)c(O)c(C(C)C)c2)CC1 [Cpd-26] | 5 to 10 | 5 to 10 | 0.98 to 1.77 | 12.33 to 28.05 | 26.52 to 182.97 |
| CCOC(=O)N(c1cccc(C#N)c1)N1CCN(c2cc(C(C)C)c(O)c(C(C)C)c2)CC1 [Cpd-95] | – | 20 to 40 | 0.72 | 13.75 | 54.33 |
| CCOC(=O)N(c1ccc(OC)c(F)c1)N1CCN(c2cc(C(C)C)c(O)c(C(C)C)c2)CC1 [Cpd-101] | – | 10 to 20 | 0.70 to 0.73 | 2.05 to 2.58 | 38.73 to 57.17 |
| CCOC(=O)N(c1ccc(OC)c(Br)c1)N1CCN(c2cc(C(C)C)c(O)c(C(C)C)c2)CC1 [Cpd-103] | – | 20 to 40 | 0.15 | 14.85 | 107.67 |
| CCOC(=O)N(c1cccc(Cl)c1)N1CCN(c2cc(C(C)C)c(O)c([C@@H](C)C3CC3)c2)CC1 [Cpd-106] | – | 10 to 20 | 1.55 to 1.60 | 3.35 to 24.10 | 98.82 to 103.67 |
| CCOC(=O)N(Cc1ccoc1)N1CCN(c2cc(C(C)C)c(O)c(C(C)C)c2)CC1 [Cpd-126] | – | 10 to 20 | 0.42 | 14.90 | 21.85 |
| CCOC(=O)N(Cc1cccc(Cl)c1)N1CCN(c2cc(C(C)C)c(O)c(C(C)C)c2)CC1 [Cpd-127] | – | 5 to 10 | 0.55 | 21.20 | 71.18 |
